The values below come from US20260315452A1, “PROTEASE INHIBITORS AND USES THEREOF” (priority 2023, published 2026).

The first assay relates to SARS-CoV-2. Put plainly: Anti-SARS-CoV-2 activity in A549 cells expressing the human ACE2 receptor (inhibition of SARS-CoV-2 replication). The assay is classed as cell-based. The note with it: Severe acute respiratory syndrome coronavirus 2, A549-ACE2, 24 h, read-out: Antiviral Activity (EC50).
For orientation: EC50 means the midpoint of the concentration-response curve. Take `CNC(=O)c1cc(Br)cc([N+](=O)[O-])c1N[C@@H]1CCCN(C(=O)c2cncc3ccccc23)C1` [Compound 75, (R)-5-bromo-2-((1-(isoquinoline-4-carbonyl)piperidin-3-yl)amino)-N-methyl-3-nitrobenzamide]: the EC50 was less than 100 nM. Still for that read-out and setting: then `CN(C)C1CN(C(=O)c2cc(Br)cc([N+](=O)[O-])c2N[C@H]2CN(C(=O)c3cncc4ccccc34)CCC2(F)F)C1` [Compound 47], with less than 100 nM.

Still in this assay, the particulars now being: read-out: Antiviral Activity (EC50); inhibition of SARS-CoV-2 replication in mammalian cells; A549-ACE2 cells, 24 hours infection.
For the compound `O=C(NC1CCOC1)c1cc(Cl)cc([N+](=O)[O-])c1N[C@H]1CN(C(=O)c2cncc3ccccc23)CCC1(F)F` (stereo in doubt) [Compound 159, 5-chloro-2-(((S)-4,4-difluoro-1-(isoquinoline-4-carbonyl)piperidin-3-yl)amino)-3-nitro-N-((S)-tetrahydrofuran-3-yl)benzamide], the 50% effective concentration (EC50) is less than 100 nM.

The target of a further assay is SARS-CoV-2 3CLpro (Severe acute respiratory syndrome coronavirus 2, UniProt P0DTD1). Put plainly: biochemical. The settings on record: inhibition of SARS-CoV-2 3CLpro; 15 nM 3CLpro, 25 μM fluorogenic substrate, 37° C.; read-out: Inhibitory Activity (IC50).
One may read the IC50 as the concentration needed to halve the response being measured. Regarding `CNC(=O)c1cc(Br)cc([N+](=O)[O-])c1N[C@@H]1CCCN(C(=O)c2cncc3ccccc23)C1` [Compound 75, (R)-5-bromo-2-((1-(isoquinoline-4-carbonyl)piperidin-3-yl)amino)-N-methyl-3-nitrobenzamide], the half-maximal inhibitory concentration (IC50) is less than 100 nM. Regarding `CN(C)C1CN(C(=O)c2cc(Br)cc([N+](=O)[O-])c2N[C@H]2CN(C(=O)c3cncc4ccccc34)CCC2(F)F)C1` [Compound 47], the IC50 is less than 100 nM. In the case of `CNC(=O)c1cc(Cl)cc([N+](=O)[O-])c1N[C@H]1CN(C(=O)c2cncc3ccn(C)c23)CC[C@@H]1F` [Compound 178, 5-chloro-2-(((3S, 4S)-4-fluoro-1-(1-methyl-1H-pyrrolo[3,2-c]pyridine-7-carbonyl)piperidin-3-yl)amino)-N-methyl-3-nitrobenzamide], the concentration for half-maximal inhibition (IC50) was less than 100 nM.

As to `CNC(=O)c1cc(Br)cc([N+](=O)[O-])c1N[C@H]1CN(C(=O)C2CC(=O)Nc3ccccc32)CCC1(F)F` (some centres unmarked) [Compound 104], the 50% inhibitory concentration (IC50) was less than 100 nM. On the same count and under the same terms, next, `O=C(N[C@H]1CCOC1)c1cc(Br)cc(C(F)(F)F)c1N[C@H]1CN(C(=O)c2cncc3cccnc23)CCC1(F)F` [Compound 109, 5-bromo-2-(((S)-4,4-difluoro-1-(1,6-naphthyridine-8-carbonyl)piperidin-3-yl)amino)-N-((S)-tetrahydrofuran-3-y1)-3-(trifluoromethyl)benzamide]: less than 100 nM; `CNC(=O)c1cc(Br)cc([N+](=O)[O-])c1NC(C1CC1)C1CN(C(=O)c2cncc3ccccc23)C1` (centres unmarked) [Compound 58, 5-bromo-2-((cyclopropyl(1-(isoquinoline-4-carbonyl)azetidin-3-yl)methyl)amino)-N-methyl-3-nitrobenzamide]: 100 to 1000 nM. As for `Cc1c(Cl)cncc1C(=O)N1CCC2(CCN(c3c(C(=O)NC4CC(F)(F)C4)cc(Br)cc3[N+](=O)[O-])C2)C1` (centres unmarked) [Compound 24, 5-bromo-2-(7-(5-chloro-4-methylnicotinoyl)-2,7-diazaspiro[4.4]nonan-2-yl)-N-(3,3-difluorocyclobutyl)-3-nitrobenzamide], the IC50 lay in the range of 1000 to 10000 nM. Still for that read-out and setting: then `CNC(=O)c1cc(Br)cc([N+](=O)[O-])c1N[C@@H]1CCCC[C@@H]1NC(=O)c1cncc(CN)c1` [Compound 6, 5-(aminomethyl)-N-((1S,2R)-2-((4-bromo-2-(methylcarbamoyl)-6-nitrophenyl)amino)cyclohexyl) nicotinamide], with not below 10000 nM; and `CNC(=O)c1cc(Br)cc(C(F)(F)F)c1N[C@H]1CN(C(=O)c2cncc3cccnc23)CCC1(F)F` [Compound 167, (S)-5-bromo-2-((4,4-difluoro-1-(1,6-naphthyridine-8-carbonyl)piperidin-3-yl)amino)-N-methyl-3-(trifluoromethyl)benzamide], with less than 100 nM; and `O=C(NCC(F)(F)F)c1cc(Br)cc([N+](=O)[O-])c1N[C@H]1CN(C(=O)c2cncc3ccccc23)CCC1(F)F` [Compound 148, (S)-5-bromo-2-((4,4-difluoro-1-(isoquinoline-4-carbonyl)piperidin-3-yl)amino)-3-nitro-N-(2,2,2-trifluoroethyl) benzamide], with less than 100 nM. As to `COC1CN(C(=O)c2cc(Cl)cc([N+](=O)[O-])c2N[C@H]2CN(C(=O)c3cncc4cccnc34)CCC2(F)F)C1` [Compound 111, (S)-(5-chloro-2-((4,4-difluoro-1-(1,6-naphthyridine-8-carbonyl)piperidin-3-yl)amino)-3-nitrophenyl)(3-methoxyazetidin-1-yl)methanone], the IC50 was less than 100 nM. For `CNC(=O)c1cc(Br)cc([N+](=O)[O-])c1Nc1ccccc1NC(=O)c1cncc2ccccc12` [Compound 131, N-(2-((4-bromo-2-(methylcarbamoyl)-6-nitrophenyl)amino)phenyl) isoquinoline-4-carboxamide], the IC50 was not below 10000 nM.

As to `CC(C)C(Nc1c(-c2ncco2)cc(Br)cc1[N+](=O)[O-])C1CN(C(=O)c2cncc3ccccc23)C1` (centres unmarked) [Compound 65, (3-(1-((4-bromo-2-nitro-6-(oxazol-2-yl)phenyl)amino)-2-methylpropyl)azetidin-1-yl)(isoquinolin-4-yl)methanone], the half-maximal inhibitory concentration (IC50) was 1000 to 10000 nM. Consider `O=C(N[C@@H]1CCOC1)c1cc(Br)cc(C(F)(F)F)c1N[C@H]1CN(C(=O)c2cncc3ccccc23)CCC1(F)F` [Compound 182, 5-bromo-2-(((S)-4,4-difluoro-1-(isoquinoline-4-carbonyl)piperidin-3-yl)amino)-N-((R)-tetrahydrofuran-3-yl)-3-(trifluoromethyl)benzamide], for which the IC50 was less than 100 nM. Still for that read-out and setting: then `CNC(=O)c1cc(Br)cc([N+](=O)[O-])c1NC(C(C)C)C1CN(C(=O)c2cncc3ccccc23)C1` (stereo in doubt) [Compound 15, (R)-5-bromo-2-((1-(1-(isoquinoline-4-carbonyl)azetidin-3-yl)-2-methylpropyl)amino)-N-methyl-3-nitrobenzamide], with not below 10000 nM; and `CNC(=O)c1cc(Cl)cc([N+](=O)[O-])c1NC(C(C)C)C1CN(C(=O)c2cncc3ccccc23)C1` (centres unmarked) [Compound 130, 5-chloro-2-((1-(1-(isoquinoline-4-carbonyl)azetidin-3-yl)-2-methylpropyl)amino)-N-methyl-3-nitrobenzamide acid], with 100 to 1000 nM; and `O=C(N[C@@H]1CCNC1)c1cc(Br)cc([N+](=O)[O-])c1N[C@H]1CN(C(=O)c2cncc3ccccc23)CC1(F)F` [Compound 150], with less than 100 nM.

On to `O=C(N[C@@H]1CCNC1)c1cc(Br)cc(C(F)(F)F)c1N[C@H]1CN(C(=O)c2cncc3ccccc23)CCC1(F)F` [Compound 160, 5-bromo-2-[[(3S)-4,4-difluoro-1-(isoquinoline-4-carbonyl)-3-piperidyl]amino]-N-[(3R)-pyrrolidin-3-yl]-3-(trifluoromethyl)benzamide], for which the IC50 was less than 100 nM. Consider `O=C(NC1CC(F)(F)C1)c1cc(Br)cc([N+](=O)[O-])c1N1CCC2(CCN(C(=O)c3cncnc3)C2)C1` (centres unmarked) [Compound 115, 5-bromo-N-(3,3-difluorocyclobutyl)-3-nitro-2-(7-(pyrimidine-5-carbonyl)-2,7-diazaspiro[4.4]nonan-2-yl)benzamide], for which the IC50 was not below 10000 nM. As for `C[C@@H](NC(=O)c1cc(Br)cc([N+](=O)[O-])c1N[C@@H]1COCC[C@@H]1NC(=O)c1cncc2ccccc12)C(F)(F)F` [Compound 136, N-((3S, 4S)-3-((4-bromo-2-nitro-6-(((R)-1,1,1-trifluoropropan-2-yl)carbamoyl)phenyl)amino)tetrahydro-2H-pyran-4-yl)isoquinoline-4-carboxamide], the IC50 lay within 100 to 1000 nM. Turning to `O=C(N[C@H]1CCOC1)c1cc(Br)cc(C(F)(F)F)c1N[C@H]1CN(C(=O)c2cncc3ccccc23)CCC1(F)F` [Compound 164, 5-bromo-2-(((S)-4,4-difluoro-1-(isoquinoline-4-carbonyl)piperidin-3-yl)amino)-N-((S)-tetrahydrofuran-3-yl)-3-(trifluoromethyl)benzamide], the IC50 was less than 100 nM.

Regarding `O=C(O)c1cc(Br)cc([N+](=O)[O-])c1N[C@@H]1CCCC[C@@H]1NC(=O)c1cncc2ccccc12` [Compound 52, 5-bromo-2-(((1R, 2S)-2-(isoquinoline-4-carboxamido)cyclohexyl)amino)-3-nitrobenzoic acid], the IC50 lay within 1000 to 10000 nM. The same measure, in the same setting: then `COC1CN(C(=O)c2cc(Br)cc(C(F)(F)F)c2N[C@H]2CN(C(=O)c3cncc4ccccc34)CCC2(F)F)C1` [Compound 172, (S)-(5-bromo-2-((4,4-difluoro-1-(isoquinoline-4-carbonyl)piperidin-3-yl)amino)-3-(trifluoromethyl)phenyl)(3-methoxyazetidin-1-yl)methanone], with less than 100 nM; and `CNC(=O)c1cc(Br)cc([N+](=O)[O-])c1O[C@@H]1CCCC[C@@H]1NC(=O)c1cncc2ccccc12` [Compound 102, N-[(1S,2R)-2-[4-bromo-2-(methylcarbamoyl)-6-nitro-phenoxy]cyclohexyl]isoquinoline-4-carboxamide], with less than 100 nM; and `CNC(=O)c1cc(Br)cc([N+](=O)[O-])c1N1CCC2(CCN(C(=O)c3cncnc3)C2)C1` (centres unmarked) [Compound 21], with not below 10000 nM. With `CNC(=O)c1cc(Br)cc([N+](=O)[O-])c1NC(C(C)C)C1CN(C(=O)c2cncnc2)C1` (centres unmarked) [Compound 71, 5-bromo-N-methyl-2-((2-methyl-1-(1-(pyrimidine-5-carbonyl)azetidin-3-yl)propyl)amino)-3-nitrobenzamide], the IC50 lay within 1000 to 10000 nM. In the case of `O=C(c1cc(Cl)cc([N+](=O)[O-])c1N[C@H]1CN(C(=O)c2cncc3cccnc23)CCC1(F)F)N1CC(O)C1` [Compound 112, (S)-(5-chloro-2-((4,4-difluoro-1-(1,6-naphthyridine-8-carbonyl)piperidin-3-yl)amino)-3-nitrophenyl)(3-hydroxyazetidin-1-yl)methanone], the IC50 is less than 100 nM.

For `CNC(=O)c1cc(Br)cc([N+](=O)[O-])c1N[C@H]1CN(C(=O)c2cncc3cccnc23)CCC1(F)F` [Compound 107, (S)-5-bromo-2-((4,4-difluoro-1-(1,6-naphthyridine-8-carbonyl)piperidin-3-yl)amino)-N-methyl-3-nitrobenzamide], the half-inhibitory concentration (IC50) was less than 100 nM. For `CC(C)C(Nc1c(-c2nnc[nH]2)cc(Br)cc1[N+](=O)[O-])C1CN(C(=O)c2cncc3ccccc23)C1` (centres unmarked) [Compound 17, (3-(1-((4-bromo-2-nitro-6-(4H-1,2,4-triazol-3-yl)phenyl)amino)-2-methylpropyl)azetidin-1-yl)(isoquinolin-4-yl)methanone], the IC50 was 100 to 1000 nM.
